# Experimental data as given in ChEMBL document CHEMBL3044565, “Pharmacopore hypothesis generation of BACE-1 inhibitors and pharmacophore-driven identification of potent multi-target neuroprotective agents” (Med Chem Res, 2012).
# *1 amine or outer side, *2 acyl side, *3 side chain or, on linkers, in order; H or OH if unused. Where a SMILES comes first, the peptide text is derived from it. [ ]: non-standard residue; d: D form. LeuΨ(S-CHOHCH2)Ala = CC(C)C[C@H](N[*:1])[C@@H](O)C[C@@H](C)C(=O)[*:2]
# Legend:
# [1] = Neuroprotective activity in Homo sapiens (human) SH-SY5Y cells assessed as reduction of amyloid beta-induced cell death at 10 ug/ml inubated for 1 hr prior to amyloid beta induction measured after 48 hr by MTT assay; format: functional; parameters: scale not given: the % may be the effect or the level left
# Beta-secretase 1 [2] = molecular target: T1, Beta-secretase 1 (Homo sapiens, UniProt P56817); assay: Inhibition of BACE1 (unknown origin) at 10 ug/ml after 1 hr by FRET assay
# T1 sequence (P56817 whole entry): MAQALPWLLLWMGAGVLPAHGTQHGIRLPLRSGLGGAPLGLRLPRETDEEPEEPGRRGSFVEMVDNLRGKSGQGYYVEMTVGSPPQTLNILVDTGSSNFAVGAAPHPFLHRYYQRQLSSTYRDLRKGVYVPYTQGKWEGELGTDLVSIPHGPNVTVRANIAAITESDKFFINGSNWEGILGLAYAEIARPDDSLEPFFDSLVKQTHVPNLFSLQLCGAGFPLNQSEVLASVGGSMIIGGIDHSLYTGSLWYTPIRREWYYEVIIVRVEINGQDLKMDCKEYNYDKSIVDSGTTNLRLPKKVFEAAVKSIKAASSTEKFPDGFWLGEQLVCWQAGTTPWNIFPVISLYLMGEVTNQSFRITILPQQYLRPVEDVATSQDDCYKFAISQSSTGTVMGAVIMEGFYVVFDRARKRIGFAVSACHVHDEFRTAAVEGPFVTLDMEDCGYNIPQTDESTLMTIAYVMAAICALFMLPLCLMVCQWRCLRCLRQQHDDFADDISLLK
# Beta-secretase 1 [3] = molecular target: T1, Beta-secretase 1; assay: Inhibition of BACE1 (unknown origin)
# Beta-secretase 1 [4] = molecular target: T1, Beta-secretase 1; assay: Inhibition of Homo sapiens (human) Beta-secretase 1
Ki (Beta-secretase 1 [3]) [nM],IC50 (Beta-secretase 1 [4]) [nM],Structure (SMILES),Activity [1] [%],inhibition (Beta-secretase 1 [2]) [%]
,,CCOC(=O)CCC(=O)Nc1nc(-c2ccccc2)cs1,45.5,31.8
,,O=C(Nc1nc(-c2ccccc2)cs1)c1ccncc1,8.2,29.1
1.6,2,CC(C)C[C@H](NC(=O)[C@H](CC(N)=O)NC(=O)[C@@H](NC(=O)[C@@H](N)CC(=O)O)C(C)C)[C@@H](O)C[C@@H](C)C(=O)N[C@@H](C)C(=O)N[C@@H](CC(=O)O)C(=O)N[C@@H](Cc1ccccc1)C(=O)O (H-DVN[LeuΨ(S-CHOHCH2)Ala]ADF-OH),,
,,CCOC(=O)CCC(=O)NC1=NC2CCCCC2S1 (stereo not given),26.1,26.7
,,COc1cc(/C=C/C(=O)Nc2nc(-c3ccccc3)cs2)cc(OC)c1,,24.5
,,O=C(/C=C/c1ccccc1)Nc1nc(-c2ccccc2)cs1,,23.6
